For 28 compounds, Emax and EC50 results are on record in US20250388574A1, “HETEROCYCLIC COMPOUNDS AS TRIGGERING RECEPTOR EXPRESSED ON MYELOID CELLS 2 AGONISTS AND METHODS OF USE” (AMGEN INC., priority 2020, published 2025).

The test deals with hTREM2 (Homo sapiens, UniProt Q9NZC2). The experiment in a line: Phospho-Syk AlphaScreen/AlphaLISA assay in TREM2 and DAP12 overexpressing HEK293 cells (Example A1). The class given is cell-based. To be noted: HEK293 cells; for EC50: read-out: hTREM2 EC50. Further details: expressed in transfected cells. Put shortly: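 Agonism read as Syk phosphorylation: compounds in 1% DMSO applied 45 min at room temperature to TREM2/DAP12-HEK293 cells after 20 h culture. Lysis buffer with phosphatase inhibitors and anti-phospho-Syk plus biotinylated anti-Syk antibodies, then AlphaLISA beads (680 nm excitation); percent of control computed from antibody/isotype wells, curves fitted sigmoidally.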
(Alpha assays give light when donor and acceptor beads are brought close together.)

Where only a bound is given, the exact number is not on record here.

Chain of hTREM2 (Q9NZC2 19-230): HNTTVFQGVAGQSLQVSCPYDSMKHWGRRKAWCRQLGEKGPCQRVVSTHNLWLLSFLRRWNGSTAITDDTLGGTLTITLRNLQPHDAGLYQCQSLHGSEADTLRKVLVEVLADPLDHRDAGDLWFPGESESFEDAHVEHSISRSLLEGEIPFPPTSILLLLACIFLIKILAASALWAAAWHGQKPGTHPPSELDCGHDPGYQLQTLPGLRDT
Chain of hTREM2 (O43914 22-113 partner): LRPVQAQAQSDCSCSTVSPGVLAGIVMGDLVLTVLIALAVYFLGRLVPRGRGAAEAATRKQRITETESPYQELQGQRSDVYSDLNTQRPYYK

Broadly, the EC50 is the concentration at which the effect is half-maximal. `Cc1nc2cc(N3CCc4cnccc4C3)nc(-c3ccc(Cl)cc3F)c2c(=O)n1C` [Example 101, 5-(4-chloro-2-fluorophenyl)-7-(3,4-dihydro-2,6-naphthyridin-2(1H)-yl)-2,3-dimethylpyrido[4,3-d]pyrimidin-4(3H)-one]: the Emax entry was “+++ (Emax>200 and ≤300)”; the EC50 lay in the range of 500 to 3000 nM.
With `Cc1nc2cc(N3CCO[C@H](c4ccnc(C(F)(F)F)c4)C3)nc(-c3ccc(Cl)cc3F)c2c(=O)n1C` [Example 265, (R)-5-(4-chloro-2-fluorophenyl)-2,3-dimethyl-7-(2-(2-(trifluoromethyl)pyridin-4-yl)morpholino)pyrido[4,3-d]pyrimidin-4(3H)-one], the Emax entry was “+++ (Emax>200 and ≤300)”; the EC50 lay within 500 to 3000 nM.
`Cc1nc2cc(N3CCO[C@H](c4cnn(C)c4)C3)nc(-c3ccccc3F)c2c(=O)n1C` [Example 218, (R)-5-(2-fluorophenyl)-2,3-dimethyl-7-(2-(1-methyl-1H-pyrazol-4-yl)morpholino)pyrido[4,3-d]pyrimidin-4(3H)-one]: the Emax entry was “+++ (Emax>200 and ≤300)”; the concentration giving a half-maximal response (EC50) was 3000 to 100000 nM.
Turning to `CCCn1c(C)nc2cc(N3CCn4ccnc4C3)nc(-c3ccc(Cl)cc3F)c2c1=O` [Example 182, 5-(4-chloro-2-fluorophenyl)-7-(5,6-dihydroimidazo[1,2-a]pyrazin-7(8H)-yl)-2-methyl-3-propylpyrido[4,3-d]pyrimidin-4(3H)-one], the Emax result is “+++ (Emax>200 and ≤300)”; the EC50 lay within 3000 to 100000 nM.
As for `Cc1nc2cc(N3CCO[C@@H](c4cnn(C5CC(F)(F)C5)c4)C3)nc(-c3ccc(Cl)cc3F)c2c(=O)n1C` [Example 131, 5-(4-chloro-2-fluorophenyl)-7-((2S)-2-(1-(3,3-difluorocyclobutyl)-1H-pyrazol-4-yl)-4-morpholinyl)-2,3-dimethylpyrido[4,3-d]pyrimidin-4(3H)-one], the Emax entry is “+++ (Emax>200 and ≤300)”; the 50% effective concentration (EC50) was less than 50 nM.
Turning to `Cc1nc2cc(N3CCO[C@H](c4cnn(C)c4)C3)nc(-c3ncc(Cl)cc3F)c2c(=O)n1C` [Example 196, (R)-5-(5-chloro-3-fluoropyridin-2-yl)-2,3-dimethyl-7-(2-(1-methyl-1H-pyrazol-4-yl)morpholino)pyrido[4,3-d]pyrimidin-4(3H)-one], the Emax entry was “++++ (Emax>300)” and the 50% effective concentration (EC50) fell in the range of 500 to 3000 nM.
As to `Cc1nc2cc(N3CCO[C@@H](c4cnn(C)c4)C3)nc(-c3ccc(C(F)(F)F)nc3)c2c(=O)n1C` [Example 17, 2,3-dimethyl-7-((2S)-2-(1-methyl-1H-pyrazol-yl)-4-morpholinyl)-5-(6-(trifluoromethyl)-3-pyridinyl)pyrido[4,3-d]pyrimidin-4(3H)-one], the 50% effective concentration (EC50) was in the range of 500 to 3000 nM.
In the case of `CCn1c(C(F)(F)F)nc2cc(N3CCO[C@@H](c4cnn(C)c4)C3)nc(-c3ccc(Cl)cc3F)c2c1=O` [Example 144, 5-(4-chloro-2-fluorophenyl)-3-ethyl-7-((2S)-2-(1-methyl-1H-pyrazol-4-yl)-4-morpholinyl)-2-(trifluoromethyl)pyrido[4,3-d]pyrimidin-4(3H)-one], the Emax entry is recorded as “++++ (Emax>300)” and the concentration for a half-maximal effect (EC50) lay in the range of 50 to 500 nM.
Taken in the same sequence, the figures for `CCCn1c(C)nc2cc(N3Cc4cnn(C)c4C3)nc(-c3ccc(Cl)cc3F)c2c1=O` [Example 181, 5-(4-chloro-2-fluorophenyl)-2-methyl-7-(1-methyl-4,6-dihydropyrrolo[3,4-c]pyrazol-5(1H)-yl)-3-propylpyrido[4,3-d]pyrimidin-4(3H)-one] were “++++ (Emax>300)” and 3000 to 100000 nM.
Consider `Cc1nc2cc(N3CCO[C@@H](C4CC4)C3)nc(-c3ccc(Cl)cc3F)c2c(=O)n1C` [Example 188, (S)-5-(4-chloro-2-fluorophenyl)-7-(2-cyclopropylmorpholino)-2,3-dimethylpyrido[4,3-d]pyrimidin-4(3H)-one], for which the Emax result was “++++ (Emax>300)” and the EC50 is 500 to 3000 nM.
With `Cc1nc2cc(N3CCO[C@@H](c4cnn(C)c4)C3)nc(-c3ccc(F)c(F)c3F)c2c(=O)n1C` [Example 9, 2,3-dimethyl-7-((2S)-2-(1-methyl-1H-pyrazol-4-yl)-4-morpholinyl)-5-(2,3,4-trifluorophenyl)pyrido[4,3-d]pyrimidin-4(3H)-one], the Emax entry was “+++ (Emax>200 and ≤300)”; the EC50 was in the range of 50 to 500 nM.
Consider `Cc1ccc([C@@H]2CN(c3cc4nc(C)n(C)c(=O)c4c(-c4ccc(Cl)cc4F)n3)CCO2)cn1` (single isomer, unassigned) [Example 140], for which the Emax entry is “++++ (Emax>300)” and the EC50 lay in the range of 50 to 500 nM.
With `Cc1nc2cc(N3CCO[C@H](c4ccc(OCC(F)(F)F)nc4)C3)nc(-c3ccc(Cl)cc3F)c2c(=O)n1C` [Example 235, (R)-5-(4-chloro-2-fluorophenyl)-2,3-dimethyl-7-(2-(6-(2,2,2-trifluoroethoxy)pyridin-3-yl)morpholino)pyrido[4,3-d]pyrimidin-4(3H)-one], the Emax result is on record as “++++ (Emax>300)” and the EC50 was 500 to 3000 nM.
In the case of `Cc1ccc([C@H]2CN(c3cc4nc(C)n(C)c(=O)c4c(-c4ccc(Cl)cc4F)n3)CCO2)cn1` (single isomer, unassigned) [Example 139], the Emax result is reported as “++++ (Emax>300)” and the concentration giving a half-maximal response (EC50) lay within 50 to 500 nM.
Taken in the same sequence, the figures for `COc1cc([C@H]2C[C@@H](c3cc4nc(C)n(C)c(=O)c4c(-c4ccc(Cl)cc4F)n3)CCO2)ccn1` (single isomer, unassigned) [Example 172] were “++++ (Emax>300)” and less than 50 nM.
For `CCc1nnc([C@@H]2CN(c3cc4nc(C)n(C)c(=O)c4c(-c4ccc(Cl)cc4F)n3)CCO2)[nH]1` [Example 241, (S)-5-(4-chloro-2-fluorophenyl)-7-(2-(5-ethyl-4H-1,2,4-triazol-3-yl)morpholino)-2,3-dimethylpyrido[4,3-d]pyrimidin-4(3H)-one], the Emax entry was “+++ (Emax>200 and ≤300)”; the concentration giving a half-maximal response (EC50) fell in the range of 3000 to 100000 nM.
Take `Cc1nc2cc(N3CCC(C(F)F)C3)nc(-c3ccc(Cl)cc3F)c2c(=O)n1C` (stereo not shown) [Example 120, 5-(4-chloro-2-fluorophenyl)-7-(3-(difluoromethyl)-1-pyrrolidin-yl)-2,3-dimethylpyrido[4,3-d]pyrimidin-4(3H)-one]: the Emax result is “+++ (Emax>200 and ≤300)”; the EC50 fell in the range of 50 to 500 nM.
In the case of `Cc1nc2cc(N3CCO[C@@H]([C@@H]4CCOC4)C3)nc(-c3ccc(Cl)cc3F)c2c(=O)n1C` (single isomer, unassigned) [Example 44], the Emax result was “+++ (Emax>200 and ≤300)”; the concentration giving a half-maximal response (EC50) lay within 50 to 500 nM.
With `Cc1nc2cc(N3CCO[C@H](c4cnn(C)c4)C3)nc(-c3ccc(Cl)cc3)c2c(=O)n1C` [Example 220, (R)-5-(4-chlorophenyl)-2,3-dimethyl-7-(2-(1-methyl-1H-pyrazol-4-yl)morpholino)pyrido[4,3-d]pyrimidin-4(3H)-one], the Emax result is listed as “++++ (Emax>300)” and the 50% effective concentration (EC50) fell in the range of 50 to 500 nM.
With `CCc1nnc(C2CN(c3cc4nc(C)n(C)c(=O)c4c(-c4ccc(Cl)cc4F)n3)CCO2)o1` (stereo not shown) [Example 70, 5-(4-chloro-2-fluorophenyl)-7-(2-(5-ethyl-1,3,4-oxadiazol-2-yl)-4-morpholinyl)-2,3-dimethylpyrido[4,3-d]pyrimidin-4(3H)-one], the Emax result was “++++ (Emax>300)” and the 50% effective concentration (EC50) was in the range of 50 to 500 nM.
Taken in the same sequence, the figures for `Cc1nc2cc(N3C[C@@H](C4CC4)O[C@@H](C)C3)nc(-c3ccc(Cl)cc3F)c2c(=O)n1C` (single isomer, unassigned) [Example 37] were “++++ (Emax>300)” and 50 to 500 nM.
As for `Cc1cc([C@@H]2CN(c3cc4nc(C)n(C)c(=O)c4c(-c4ccc(Cl)cc4F)n3)CCO2)ccn1` [Example 62, 5-(4-chloro-2-fluorophenyl)-2,3-dimethyl-7-((2R)-2-(2-methyl-4-pyridinyl)-4-morpholinyl)pyrido[4,3-d]pyrimidin-4(3H)-one], the Emax entry is “+++ (Emax>200 and ≤300)”; the EC50 fell in the range of 50 to 500 nM.
Take `Cc1nn(C)cc1C1CN(c2cc3nc(C)n(C)c(=O)c3c(-c3ccc(Cl)cc3F)n2)CCO1` (stereo not shown) [Example 68, 5-(4-chloro-2-fluorophenyl)-7-(2-(1,3-dimethyl-1H-pyrazol-4-yl)-4-morpholinyl)-2,3-dimethylpyrido[4,3-d]pyrimidin-4(3H)-one]: the Emax entry is “+++ (Emax>200 and ≤300)”; the half-maximal effective concentration (EC50) was 50 to 500 nM.
Take `COc1cc([C@@H]2C[C@H](c3cc4nc(C)n(C)c(=O)c4c(-c4ccc(Cl)cc4F)n3)CCO2)ccn1` (single isomer, unassigned) [Example 173]: the Emax result is “+++ (Emax>200 and ≤300)”; the EC50 fell in the range of 500 to 3000 nM.
In the case of `Cc1ccc(C2CN(c3cc4nc(C)n(C)c(=O)c4c(-c4ccc(Cl)cc4F)n3)CCO2)cn1` (stereo not shown) [Example 60, 5-(4-chloro-2-fluorophenyl)-2,3-dimethyl-7-(2-(6-methyl-3-pyridinyl)-4-morpholinyl)pyrido[4,3-d]pyrimidin-4(3H)-one], the Emax entry is listed as “++++ (Emax>300)” and the EC50 was 50 to 500 nM.
In the case of `Cc1cc([C@@H]2CN(c3cc4nc(C)n(C)c(=O)c4c(-c4ccc(Cl)cc4F)n3)CCO2)cc(C)n1` (single isomer, unassigned) [Example 76], the Emax result is recorded as “++++ (Emax>300)” and the EC50 was 50 to 500 nM.
Taken in the same sequence, the figures for `CCn1cc([C@@H]2CN(c3cc4nc(C)n(C)c(=O)c4c(-c4ccc(Cl)cc4F)n3)CCO2)cn1` [Example 197, (R)-5-(4-chloro-2-fluorophenyl)-7-(2-(1-ethyl-1H-pyrazol-4-yl)morpholino)-2,3-dimethylpyrido[4,3-d]pyrimidin-4(3H)-one] were “++++ (Emax>300)” and 50 to 500 nM.
Take `Cc1nc2cc(N3CCOC(c4cnn(C)c4)C3)cc(-c3ncc(Cl)cc3F)c2c(=O)n1C` (stereo not shown) [Example 15, 5-(5-chloro-3-fluoro-2-pyridinyl)-2,3-dimethyl-7-(2-(1-methyl-1H-pyrazol-4-yl)-4-morpholinyl)-4(3H)-quinazolinone]: the Emax result is listed as “++++ (Emax>300)” and the half-maximal effective concentration (EC50) is 500 to 3000 nM.
